Target: T1, KRAS G12C 1-169, his-tagged protein, GDP-loaded (Homo sapiens, UniProt P01116, G12C)
T1 construct: KRAS G12C 1-169, his-tagged protein, GDP-loaded; His tag
Assay: Biochemical assay: covalent modification of KRAS G12C, analysed by mass spectrometry (RapidFire/TOF or Q-Exactive)
Format: binding
Settings: Modification activity, modification percentage from MS peak intensities
Method: Test compounds are prepared as 10 mM stock solutions in DMSO (Fisher cat. #BP-231-100). KRAS G12C 1-169, his-tagged protein, GDP-loaded is diluted to 2 μM or 0.5 μM in buffer (20 mM Hepes, 150 mM NaCl, 1 mM MgCl2). Compounds are tested for activity as follows:
Compounds are diluted to 50× final test concentration in DMSO in 96-well storage plates. Compound stock solutions are vortexed before use and observed carefully for any sign of precipitation. Dilutions are as follow: • For 32 μM final compound concentration, compounds are diluted to 1600 μM (3 μL 10 mM compound stock+15.75 μL DMSO and mixed well by pipetting. • For 8 μM final compound concentration, compounds are diluted to 400 μM (2 μL 10 mM compound stock+48 μL DMSO) and mixed well by pipetting. 49 μL of the stock protein solution is added to each well of a 96-well PCR plate (Fisher cat #1423027). 1 μl of the diluted 50× compounds are added to appropriate wells in the PCR plate using 12-channel pipettor. Reactions are mixed carefully and thoroughly by pipetting up/down with a 200 μL multi-channel pipettor. The plate is sealed well with aluminum plate seal, and protein and compound are allowed to react for a desired amount of time. 5 μL of 2% formic acid (Fisher cat #A117) in de-ionized H2O is then added to each well followed by mixing with a pipette to quench the reaction. The plate is then resealed with aluminum seal and stored frozen on dry ice until analyzed as described below.
The above described assays are analyzed by mass spectrometry according to one of the following two procedures:
The MS instrument is set to positive polarity, 2 GHz resolution, and low mass (1700) mode and allowed to equilibrate for 30 minutes. The instrument is then calibrated, switched to acquisition mode and the appropriate method loaded.
After another 30 minute equilibration time, a blank batch (i.e., buffer) is run to ensure equipment is operating properly. The samples are thawed at 37° C. for 10 minutes, briefly centrifuged, and transfer to the bench top. Wells A1 and H12 are spiked with 1 μL 500 μM internal standard peptide, and the plates centrifuged at 2000×g for 5 minutes. The method is then run and masses of each individual well recorded.
The masses (for which integration data is desired) for each well are pasted into the platemap and exported from the analysis. Masses for the internal standards are exported as well. The data at 50 ppm is extracted for the +19 charge state, and identity of well A1 is assigned using the internal standard spike and integrated. Peak data is exported as a TOF list and the above steps are repeated individually, for the +20, +21, +22, +23, +24, and +25 charge states.
The masses and peak intensities of KRAS G12C protein species are measured using a Dionex RSLCnano system (Thermo Scientific) connected to a Q Exactive Plus mass spectrometer (Thermo Scientific).
20 μL of sample is each loaded onto a Aeris™ 3.6 μm WIDEPORE C4 200 Å, LC Column 50×2.1 mm column maintained at 40° C. at a flow rate of 600 μL/min with 80% Solvent A (0.1% formic acid in H2O) and 20% Solvent B (0.1% formic acid in acetonitrile). The liquid chromatography conditions are 20% solvent B for 1 minute, 20% to 60% solvent B for 1.5 minutes, 60% to 90% solvent for 0.5 minute, 90% solvent B for 0.2 minute, 90% to 20% solvent B for 0.2 minute, and then equilibrated for 1.6 minute before the following sample injection. The flow rate is maintained at 600 μL/min throughout the sample analysis.
The mass spectrometer is operated in profile mode at a resolution of 17500, 5 microscans, using 50 msec max injection time and an AGC target of 1×10^6, and a full mass range from 800-1850 m/z is recorded. The intact protein mode is applied for optimal ion transfer and maximum sensitivity. The ionization method is electrospray ionization, which used a spray voltage of 4 kV, sheath gas flow set to 50 AU, auxiliary gas flow set to 10 AU and sweep gas flow set to 1 AU. […]

C=CC(=O)N1CC2(CCN(c3nc(OCc4ccccn4)nc(-c4c(C)ccc5[nH]ncc45)n3)C2)C1 [Compound I-219, 1-(6-(4-(5-methyl-1H-indazol-4-yl)-6-(pyridin-2-ylmethoxy)-1,3,5-triazin-2-yl)-2,6-diazaspiro[3.4]octan-2-yl)prop-2-en-1-one]
Binding %: + (+ indicates binding activity greater than 0% and up to 50%)

C=CC(=O)N1CC2(CCN(c3nc(-c4c(C)ccc5[nH]ncc45)nc(N4CCOCC4)n3)C2)C1 [Compound I-189, 1-(6-(4-(5-methyl-1H-indazol-4-yl)-6-morpholino-1,3,5-triazin-2-yl)-2,6-diazaspiro[3.4]octan-2-yl)prop-2-en-1-one]
Binding %: + (+ indicates binding activity greater than 0% and up to 50%)

C=CC(=O)N1CC2(CCN(c3nc(OCc4cccc(C)n4)nc(-c4c(C)ccc5cnn(C)c45)c3C#N)C2)C1 [Compound I-170, 4-(2-acryloyl-2,6-diazaspiro[3.4]octan-6-yl)-6-(1,6-dimethyl-1H-indazol-7-yl)-2-((6-methylpyridin-2-yl)methoxy)pyrimidine-5-carbonitrile]
Binding %: ++ (++ indicates binding activity from 50 to 85%)

C=CC(=O)N1CC2(CCN(c3nc(N4CCC5CCN(C)C5C4)nc(-c4c(C)ccc5[nH]ncc45)c3C#N)C2)C1 (stereo not drawn) [Compound I-40, 4-(2-acryloyl-2,6-diazaspiro[3.4]octan-6-yl)-6-(5-methyl-1H-indazol-4-yl)-2-(1-methyloctahydro-6H-pyrrolo[2,3-c]pyridin-6-yl)pyrimidine-5-carbonitrile]
Binding %: +++ (+++ indicates binding activity greater than 85%)

C=CC(=O)N1CC2(CCN(c3nccc(-c4c(C)ccc5[nH]ncc45)c3C#N)C2)C1 [Compound I-267, 2-(2-acryloyl-2,6-diazaspiro[3.4]octan-6-yl)-4-(5-methyl-1H-indazol-4-yl)nicotinonitrile]
Binding %: + (+ indicates binding activity greater than 0% and up to 50%)

C=CC(=O)N1CC2(CCN(c3nc(OC[C@@H]4CCCN4C)nc(-c4cnn(CCO)c4)c3C#N)C2)C1 [Compound I-35, (S)-4-(2-acryloyl-2,6-diazaspiro[3.4]octan-6-yl)-6-(1-(2-hydroxyethyl)-1H-pyrazol-4-yl)-2-((1-methylpyrrolidin-2-yl)methoxy)pyrimidine-5-carbonitrile]
Binding %: + (+ indicates binding activity greater than 0% and up to 50%)

C=CC(=O)N1CC2(CCN(c3nc(N4CCOCC4)nc(-c4cccc5[nH]ncc45)c3C#N)C2)C1 [Compound I-95, 4-(2-acryloyl-2,6-diazaspiro[3.4]octan-6-yl)-6-(1H-indazol-4-yl)-2-morpholinopyrimidine-5-carbonitrile]
Binding %: + (+ indicates binding activity greater than 0% and up to 50%)

C=CC(=O)N1CC2(CCN(c3nc(-c4c(C)ccc5[nH]ncc45)cc(N4CCOCC4)n3)C2)C1 [Compound I-144, 1-(6-(4-(5-methyl-1H-indazol-4-yl)-6-morpholinopyrimidin-2-yl)-2,6-diazaspiro[3.4]octan-2-yl)prop-2-en-1-one]
Binding %: + (+ indicates binding activity greater than 0% and up to 50%)

Cc1ccc2[nH]ncc2c1-c1cncc(N2CCC3(CN(C(=O)/C=C/CN(C)C)C3)C2)c1C#N [Compound I-279, (E)-3-(2-(4-(dimethylamino)but-2-enoyl)-2,6-diazaspiro[3.4]octan-6-yl)-5-(5-methyl-1H-indazol-4-yl)isonicotinonitrile]
Binding %: + (+ indicates binding activity greater than 0% and up to 50%)

CC#CC(=O)N1CC2(CCN(c3cncc(-c4c(O)cccc4F)c3C#N)C2)C1 [Compound I-270, 3-(2-(but-2-ynoyl)-2,6-diazaspiro[3.4]octan-6-yl)-5-(2-fluoro-6-hydroxyphenyl)isoni-cotinonitrile]
Binding %: + (+ indicates binding activity greater than 0% and up to 50%)

C=CC(=O)N1CC2(CCN(c3nc(OC[C@@H]4CCCN4C)nc(-c4ccccc4-c4cn[nH]c4)c3C#N)C2)C1 [Compound I-107, (S)-4-(2-(1H-pyrazol-4-yl)phenyl)-6-(2-acryloyl-2,6-diazaspiro[3.4]octan-6-yl)-2-((1-methylpyrrolidin-2-yl)methoxy)pyrimidine-5-carbonitrile]
Binding %: + (+ indicates binding activity greater than 0% and up to 50%)

C=CC(=O)N1CC2(CCN(c3nc(OC[C@@H]4CCCN4C)nc(-c4cc(O)ccc4C)c3C#N)C2)C1 [Compound I-22, (S)-4-(2-acryloyl-2,6-diazaspiro[3.4]octan-6-yl)-6-(5-hydroxy-2-methylphenyl)-2-((1-methylpyrrolidin-2-yl)methoxy)pyrimidine-5-carbonitrile]
Binding %: + (+ indicates binding activity greater than 0% and up to 50%)

C=CC(=O)N1CC2(CCN(c3nc(OCc4ccc(C(F)(F)F)cn4)nc(-c4c(C)ccc5cnn(C)c45)c3C#N)C2)C1 [Compound I-155, 4-(2-acryloyl-2,6-diazaspiro[3.4]octan-6-yl)-6-(1,6-dimethyl-1H-indazol-7-yl)-2-((5-(trifluoromethyl)pyri-din-2-yl)methoxy)pyrimidine-5-carbonitrile]
Binding %: ++ (++ indicates binding activity from 50 to 85%)

C=CC(=O)N1CC2(CCN(c3cncc(-c4c(O)cccc4F)c3C#N)C2)C1 [Compound I-269, 3-(2-acryloyl-2,6-diazaspiro[3.4]octan-6-yl)-5-(2-fluoro-6-hydroxyphenyl)isoni-cotinonitrile]
Binding %: + (+ indicates binding activity greater than 0% and up to 50%)

C=CC(=O)N1CC2(CCN(c3nc(OCc4ccc(N5CCN(C)CC5)cn4)nc(-c4c(C)ccc5[nH]ncc45)c3C#N)C2)C1 [Compound I-181, 4-(2-acryloyl-2,6-diazaspiro[3.4]octan-6-yl)-6-(5-methyl-1H-indazol-4-yl)-2-((5-(4-methylpiperazin-1-yl)pyridin-2-yl)methoxy)pyrimidine-5-carbonitrile]
Binding %: ++ (++ indicates binding activity from 50 to 85%)

C=CC(=O)N1CC2(CCN(c3nc(OC[C@@H]4CCCN4C)nc(-c4c(C)ccc5[nH]cnc45)c3C#N)C2)C1 [Compound I-29, 4-(2-acryloyl-2,6-diazaspiro[3.4]octan-6-yl)-6-(5-methyl-1H-benzo[d]imidazol-4-yl)-2-(((S)-1-methylpyrrolidin-2-yl)methoxy)pyrimidine-5-carbonitrile]
Binding %: + (+ indicates binding activity greater than 0% and up to 50%)

C=CC(=O)N1CC2(CCN(c3c(C#N)c(-c4c(C)ccc5[nH]ncc45)[nH]c(=O)[n+]3Cc3ccccc3)C2)C1 [Compound I-179, 6-(2-acryloyl-2,6-diazaspiro[3.4]octan-6-yl)-1-benzyl-4-(5-methyl-1H-indazol-4-yl)-2-oxo-2H-1l4,3l2-pyrimidine-5-carbonitrile]
Binding %: + (+ indicates binding activity greater than 0% and up to 50%)

C=CC(=O)N1CC2(CCN(c3cc(-c4c(O)cccc4F)ncn3)C2)C1 [Compound I-230, 1-(6-(6-(2-fluoro-6-hydroxyphenyl)pyri-midin-4-yl)-2,6-diazaspiro[3.4]octan-2-yl)prop-2-en-1-one]
Binding %: + (+ indicates binding activity greater than 0% and up to 50%)

Reference: patent US12134620B2 (ARAXES PHARMA LLC, priority 2018, dated 2024)
